Assay results: ChEMBL document CHEMBL3046756, “Synthesis, anti-inflammatory, and structure antioxidant activity relationship of novel 4-quinazoline” (Med Chem Res, 2013)

Assays:
[1] = system: Rattus norvegicus; experiment: Effect on LDH level in Wistar Rattus norvegicus (rat) serum at 100 mg/kg, po qd after 10 days (reference value: 249.89 +/- 13.26 U/I); type: functional
[2] = system: Rattus norvegicus; experiment: Effect on glutathione reductase level in Wistar Rattus norvegicus (rat) liver measured NADPH oxidized per min per mg of protein at 150 mg/kg, po after 10 days (reference value: 4.19 +/ 0.42 nmol); type: functional
[3] = system: Rattus norvegicus; experiment: Effect on LDH level in Wistar Rattus norvegicus (rat) serum at 150 mg/kg, po qd after 10 days (reference value: 249.89 +/- 13.26 U/I); type: functional
[4] = system: Rattus norvegicus; experiment: Effect on glutathione peroxidase level in Wistar Rattus norvegicus (rat) liver measured GSH oxidized per min per mg of protein at 50 mg/kg, po after 10 days (reference value: 47.47 +/- 3.86 mmol); type: functional
[5] = system: Rattus norvegicus; experiment: Effect on GSH level in Wistar Rattus norvegicus (rat) liver measured per mg of protein at 50 mg/kg, po after 10 days (reference value: 1.84 +/- 0.092 mg); type: functional
[6] = system: Rattus norvegicus; experiment: Effect on gamma-glutamyl transferase level in Wistar Rattus norvegicus (rat) serum at 100 mg/kg, po qd after 10 days (reference value: 0.57 +/- 0.04 U/I); type: functional
[7] = system: Rattus norvegicus; experiment: Effect on ALP level in Wistar Rattus norvegicus (rat) serum at 150 mg/kg, po qd after 10 days (reference value: 39.5 +/- 3.86 U/I); type: functional
[8] = system: Rattus norvegicus; experiment: Anti-inflammatory activity in Wistar Rattus norvegicus (rat) assessed as inhibition of carrageenan-induced paw edema at 150 mg/kg, po administered 30 min prior to carrageenan challenge measured at 90 min relative to untreated control; type: functional
[9] = system: Rattus norvegicus; experiment: Anti-inflammatory activity in Wistar Rattus norvegicus (rat) assessed as inhibition of carrageenan-induced paw edema at 150 mg/kg, po administered 30 min prior to carrageenan challenge measured at 30 min post carrageenan challenge relative to untreated control; type: functional
[10] = Toxicity in ip dosed albino Mus musculus (mouse) assessed as mortality measured within 24 hr; type: organism-based; conditions: in vivo
[11] = system: Rattus norvegicus; experiment: Effect on ALP level in Wistar Rattus norvegicus (rat) serum at 100 mg/kg, po qd after 10 days (reference value: 39.5 +/- 3.86 U/I); type: functional
[12] = system: Mus musculus; experiment: Toxicity in albino Mus musculus (mouse) assessed as increase in heart rate at 650 to 1800 mg/kg, ip measured within 1 to 2 hr; type: organism-based; parameters: route intraperitoneal; conditions: in vivo
[13] = system: Rattus norvegicus; experiment: Anti-inflammatory activity in Wistar Rattus norvegicus (rat) assessed as inhibition of carrageenan-induced paw edema at 100 mg/kg, po administered 30 min prior to carrageenan challenge measured at 180 min relative to untreated control; type: functional
[14] = system: Rattus norvegicus; experiment: Effect on SGPT level in Wistar Rattus norvegicus (rat) at 150 mg/kg, po qd after 10 days (reference value: 38.77 +/- 4.25 U/I); type: functional
[15] = system: Rattus norvegicus; experiment: Anti-inflammatory activity in Wistar Rattus norvegicus (rat) assessed as inhibition of carrageenan-induced paw edema at 100 mg/kg, po administered 30 min prior to carrageenan challenge measured at 90 min relative to untreated control; type: functional
[16] = system: Rattus norvegicus; experiment: Effect on GST level in Wistar Rattus norvegicus (rat) liver measured CDNB conjugated per min per mg of protein at 100 mg/kg, po after 10 days (reference value: 0.86 +/- 0.08 mmol); type: functional
[17] = system: Rattus norvegicus; experiment: Effect on GSH level in Wistar Rattus norvegicus (rat) liver measured per mg of protein at 150 mg/kg, po after 10 days (reference value: 1.84 +/- 0.092 mg); type: functional
[18] = system: Mus musculus; experiment: Toxicity in albino Mus musculus (mouse) assessed as change in temperature at extremities at 650 to 1800 mg/kg, ip measured within 24 hr; type: organism-based; parameters: dose 650-1800 mg/kg, route intraperitoneal; conditions: in vivo
[19] = Antioxidant activity assessed as Fe2+ chelating activity at 1.5 mg/ml after 60 min by spectrophotometric analysis; type: functional
[20] = system: Mus musculus; experiment: Toxicity in albino Mus musculus (mouse) assessed as tremor in hind limbs at 650 to 1800 mg/kg, ip measured within 24 hr; type: organism-based, Hindlimb; parameters: dose 650-1800 mg/kg, route intraperitoneal; conditions: in vivo
[21] = system: Rattus norvegicus; experiment: Anti-inflammatory activity in Wistar Rattus norvegicus (rat) assessed as inhibition of carrageenan-induced paw edema at 100 mg/kg, po administered 30 min prior to carrageenan challenge measured at 60 min relative to untreated control; type: functional
[22] = system: Rattus norvegicus; experiment: Anti-inflammatory activity in Wistar Rattus norvegicus (rat) assessed as inhibition of carrageenan-induced paw edema at 50 mg/kg, po administered 30 min prior to carrageenan challenge measured at 180 min relative to untreated control; type: functional
[23] = system: Mus musculus; experiment: Toxicity in albino Mus musculus (mouse) assessed as change in eye color at 650 to 1800 mg/kg, ip measured within 24 hr; type: organism-based; parameters: dose 650-1800 mg/kg, route intraperitoneal; conditions: in vivo
[24] = system: Rattus norvegicus; experiment: Anti-inflammatory activity in Wistar Rattus norvegicus (rat) assessed as inhibition of carrageenan-induced paw edema at 50 mg/kg, po administered 30 min prior to carrageenan challenge measured at 120 min relative to untreated control; type: functional
[25] = system: Rattus norvegicus; experiment: Anti-inflammatory activity in Wistar Rattus norvegicus (rat) assessed as inhibition of carrageenan-induced paw edema at 50 mg/kg, po administered 30 min prior to carrageenan challenge measured at 60 min relative to untreated control; type: functional
[26] = system: Rattus norvegicus; experiment: Effect on LDH level in Wistar Rattus norvegicus (rat) serum at 50 mg/kg, po qd after 10 days (reference value: 249.89 +/- 13.26 U/I); type: functional
[27] = system: Rattus norvegicus; experiment: Effect on gamma-glutamyl transferase level in Wistar Rattus norvegicus (rat) serum at 150 mg/kg, po qd after 10 days (reference value: 0.57 +/- 0.04 U/I); type: functional
[28] = system: Rattus norvegicus; experiment: Antipyretic activity in Wistar Rattus norvegicus (rat) assessed as decrease in Brewer's yeast solution-induced hyperthermia at 100 mg/kg, po measured after 3 hr (reference value: 36.8 +/- 1.9 degC); type: functional
[29] = system: Rattus norvegicus; experiment: Antipyretic activity in Wistar Rattus norvegicus (rat) assessed as decrease in Brewer's yeast solution-induced hyperthermia at 150 mg/kg, po measured after 1 hr (reference value: 37 +/- 3.55 degC); type: functional
[30] = system: Rattus norvegicus; experiment: Anti-inflammatory activity in Wistar Rattus norvegicus (rat) assessed as inhibition of carrageenan-induced paw edema at 50 mg/kg, po administered 30 min prior to carrageenan challenge measured at 30 min post carrageenan challenge relative to untreated control; type: functional
[31] = system: Mus musculus; experiment: Toxicity in albino Mus musculus (mouse) assessed as tremor in hind limbs at 150 to 900 mg/kg, ip measured within 24 hr; type: organism-based, Hindlimb; parameters: dose 150-900 mg/kg, route intraperitoneal; conditions: in vivo
[32] = system: Mus musculus; experiment: Toxicity in albino Mus musculus (mouse) assessed as change in skin color at 150 to 900 mg/kg, ip measured within 24 hr; type: organism-based; parameters: dose 150-900 mg/kg, route intraperitoneal; conditions: in vivo
[33] = system: Mus musculus; experiment: Toxicity in albino Mus musculus (mouse) assessed as change in toes color at 150 to 900 mg/kg, ip measured within 24 hr; type: organism-based; parameters: dose 150-900 mg/kg, route intraperitoneal; conditions: in vivo
[34] = system: Mus musculus; experiment: Toxicity in albino Mus musculus (mouse) assessed as change in eye color at 150 to 900 mg/kg, ip measured within 24 hr; type: organism-based; parameters: dose 150-900 mg/kg, route intraperitoneal; conditions: in vivo

Compound | Activity [1] | Activity [2] | Activity [3] | Activity [4] | Activity [5] | Activity [6] | Activity [7] | inhibition in vivo at 150 mg/kg [8] | inhibition in vivo at 150 mg/kg [9] | LD50 at 24 h [10] | Activity [11] | inhibition in vivo at 100 mg/kg [13] | Activity [14] | inhibition in vivo at 100 mg/kg [15] | Activity [16] | Activity [17] | Activity [19] | inhibition in vivo at 100 mg/kg [21] | inhibition in vivo at 50 mg/kg [22] | inhibition in vivo at 50 mg/kg [24] | further results
COC(=O)c1ccccc1NC(=O)/C=C/c1ccc(O)c(O)c1 | 239.19 U/L | 6.36 nmol | 232.48 U/L | 49.11 mmol | 1.94 mg | 0.51 U/L | 31.17 U/L | 62.6% | 37.9% | 1140 mg/kg | 35.64 U/L | 70.7% | 40.84 U/L | 49.3% | 1.54 mmol | 2.95 mg | 30% | 45.4% | 65.3% | 63.8% | Activity [12]: Toxic; Activity [18]: Toxic; Activity [20]: Toxic; Activity [23]: Toxic; inhibition in vivo at 50 mg/kg [25]: 41.6%; Activity [26]: 240.38 U/L; Activity [27]: 0.49 U/L; T [28]: 36.8 °C; T [29]: 36.9 °C; inhibition in vivo at 50 mg/kg [30]: 24.7%
O=c1c2ccccc2nc2n1NC(c1ccc(O)c(O)c1)C2 (stereo not given) | 243.46 U/L | 5.14 nmol | 238.21 U/L | 49.25 mmol | 1.8 mg | 0.51 U/L | 37.58 U/L | 44.2% | 8.48% | 495 mg/kg | 35.64 U/L | 48.3% | 33.26 U/L | 45.9% | 1.15 mmol | 2.39 mg | 22% | 38% | 47% | 53.7% | Activity [31]: Toxic; Activity [32]: Toxic; Activity [33]: Toxic; Activity [34]: Toxic; inhibition in vivo at 50 mg/kg [25]: 28.1%; Activity [26]: 246.29 U/L; Activity [27]: 0.5 U/L; T [28]: 36.8 °C; T [29]: 37.5 °C; inhibition in vivo at 50 mg/kg [30]: 1.28%
